The nature of this data set: Solubility of imidacloprid in organic solvents. It counts as physicochemical. The text has this: U.S. Pat. No. 5,783,203 mentions acetone as a solvent for imidacloprid. […] Using a 6 wt % solution imidacloprid in acetone would mean applying 1.67 wt % of the solution on the fertilizer based on the combined weight of the fertilizer and the solution to achieve a product with 0.10 wt % imidacloprid. This would be very difficult to achieve a dry product. Fertilizer products with 0.2 wt % and 0.5 wt % imidacloprid would require 3.33 wt % and 8.33 wt % respectively of the imidacloprid solution absorbed onto the fertilizer; concentrations which are not likely feasible in acetone. In addition, acetone is highly flammable which would make processing very difficult and expensive.
Preferably, the solvent system for use in the present invention consists essentially of either N-methyl-2-pyrrolidone or DMSO. […] Amine-stabilized or caustic-stabilized N-vinyl-pyrrolidone can form a solution with imidacloprid in an amount of about 15 wt % at 25° C. […] The solvent system can consist essentially of N-methyl-2-pyrrolidone, DMSO or a mixture of either N-methyl-2-pyrrolidone or DMSO with one or more co-solvents.
An imidacloprid solution was prepared by dissolving imidacloprid in dimethyl sulfoxide (DMSO). […] The resulting solution can be sprayed onto a particulate fertilizer in an amount to provide a dry particulate composition containing about 0.1 wt % imidacloprid.
The solubility of imidacloprid TGAI in N-methyl-2-pyrrolidone (NMP) was investigated. NMP has a favorable flash point of 187° F. (closed cup), mild odor, and is slow to volatilize, which are all very favorable properties. […] A 30 wt % solution can easily be prepared to spray onto fertilizer solids. Spraying a 0.50 wt % solution on fertilizer would achieve 0.15 wt % active ingredient. Spraying a 0.67 wt % solution and 1.67% wt % solution would achieve 0.20 wt % and 0.50 wt % active ingredient, respectively. These are highly plausible concentrations for use.

The structures appear in SMILES notation.

`O=[N+]([O-])NC1=NCCN1Cc1ccc(Cl)nc1` [imidacloprid, 1-((6-chloro-3-pyridinyl)methyl)-N-nitro-2-imidazolidinimine]: the “solubility of imidacloprid in NMP” value (solvent N-methyl-2-pyrrolidone (NMP), room temperature) was roughly 35 wt %. Further, the “solubility of imidacloprid in N-methyl-2-pyrrolidone” value (solvent N-methyl-2-pyrrolidone, 25° C.) is given as “about 32 wt %”. Besides, the “solubility of imidacloprid in acetone” value (solvent acetone) is recorded as “less than 7 wt %”. Besides, the “solubility of imidacloprid in N-vinyl-pyrrolidone” value (solvent amine-stabilized or caustic-stabilized N-vinyl-pyrrolidone, 25° C.) is “about 15 wt %”. The “solubility of imidacloprid in DMSO” value (solvent dimethyl sulfoxide, room temperature of about 23° C.) is reported as “about 32 wt %”.

The values above are taken from patent publication US20080072640A1, “Insecticidal Fertilizer Solids and Method of Preparation” (priority 2006, published 2008).
